# Assay results from ChEMBL document CHEMBL1201862, “PubChem BioAssay data set” (2004).
#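 Assay format: 96-well plates, 48-hour exposure. GI50 marks 50% less growth.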 Calls of active or inactive are those of the source. Rule as the data show it: active = GI50 up to about 1.1 µM and inactive = higher.
# Tests used:
# Assay in all cases: inhibition of tumour cell growth, NCI panel, 48 h
# NCI-H226 = test system: NCI-H226
# SW-620 = test system: SW-620
# SK-MEL-5 = test system: SK-MEL-5
# SK-MEL-28 = test system: SK-MEL-28
# CAKI-1 = test system: CAKI-1
# OVCAR-5 = test system: OVCAR-5
# CCRF-CEM = test system: CCRF-CEM
# SF-539 = test system: SF-539
# HCT-116 = test system: HCT-116
# M14 = test system: M14
# TK-10 = test system: TK-10
# ACHN = test system: ACHN
# MDA-N = test system: MDA-N
# IGROV-1 = test system: IGROV-1
# MDA-MB-231 = test system: MDA-MB-231
# UO-31 = test system: UO-31
# SN12C = test system: SN12C
# RXF 393 = test system: RXF 393
# UACC-62 = test system: UACC-62
# SR = test system: SR
# NCI-H460 = test system: NCI-H460
# SNB-75 = test system: SNB-75
# OVCAR-3 = test system: OVCAR-3
# Hs-578T = test system: Hs-578T
# OVCAR-4 = test system: OVCAR-4
# KM12 = test system: KM12
# PC-3 = test system: PC-3
# Malme-3M = test system: Malme-3M
# HCC 2998 = test system: HCC 2998
# COLO 205 = test system: COLO 205
# NCI/ADR-RES = test system: NCI/ADR-RES
# HL-60 = test system: HL-60
# LOX IMVI = test system: LOX IMVI
# 786-0 = test system: 786-0
# OVCAR-8 = test system: OVCAR-8
# HOP-62 = test system: HOP-62
# MOLT-4 = test system: MOLT-4
# MCF7 = test system: MCF7
# K562 = test system: K562
# NCI-H23 = test system: NCI-H23
# SK-OV-3 = test system: SK-OV-3
# HT-29 = test system: HT-29
# BT-549 = test system: BT-549
# HCT-15 = test system: HCT-15
# SNB-19 = test system: SNB-19
# U-251 = test system: U-251
# A498 = test system: A498
# EKVX = test system: EKVX
# UACC-257 = test system: UACC-257
# HOP-92 = test system: HOP-92
# SF-295 = test system: SF-295
# A549 = test system: A549
# SK-MEL-2 = test system: SK-MEL-2
# NCI-H522 = test system: NCI-H522
# MDA-MB-435 = test system: MDA-MB-435
# RPMI-8226 = test system: RPMI-8226
# DU-145 = test system: DU-145
# T47D = test system: T47D
# SF-268 = test system: SF-268
structure (smiles),measurement,setting,value
CCOC(=O)N(NC(=O)NC(C)C)c1ccccc1,GI50,NCI-H226,> 100 µM (inactive)
same,GI50,SW-620,> 100 µM (inactive)
same,GI50,SK-MEL-5,> 100 µM (inactive)
same,GI50,SK-MEL-28,> 100 µM (inactive)
same,GI50,CAKI-1,> 100 µM (inactive)
same,GI50,OVCAR-5,> 100 µM (inactive)
same,GI50,CCRF-CEM,> 100 µM (inactive)
same,GI50,SF-539,> 100 µM (inactive)
same,GI50,HCT-116,> 100 µM (inactive)
same,GI50,M14,> 100 µM (inactive)
same,GI50,TK-10,> 100 µM (inactive)
same,GI50,ACHN,> 100 µM (inactive)
same,GI50,MDA-N,> 100 µM (inactive)
same,GI50,IGROV-1,> 100 µM (inactive)
same,GI50,MDA-MB-231,> 100 µM (inactive)
same,GI50,UO-31,> 100 µM (inactive)
same,GI50,SN12C,> 100 µM (inactive)
same,GI50,RXF 393,> 100 µM (inactive)
same,GI50,UACC-62,> 100 µM (inactive)
same,GI50,SR,> 100 µM (inactive)
same,GI50,NCI-H460,> 100 µM (inactive)
same,GI50,SNB-75,> 100 µM (inactive)
same,GI50,OVCAR-3,> 100 µM (inactive)
same,GI50,Hs-578T,> 100 µM (inactive)
same,GI50,OVCAR-4,> 100 µM (inactive)
same,GI50,KM12,> 100 µM (inactive)
same,GI50,PC-3,> 100 µM (inactive)
same,GI50,Malme-3M,> 100 µM (inactive)
same,GI50,HCC 2998,84.1 µM (inactive)
same,GI50,COLO 205,> 100 µM (inactive)
same,GI50,NCI/ADR-RES,> 100 µM (inactive)
same,GI50,HL-60,60.1 µM (inactive)
same,GI50,LOX IMVI,> 100 µM (inactive)
same,GI50,786-0,> 100 µM (inactive)
same,GI50,OVCAR-8,> 100 µM (inactive)
same,GI50,HOP-62,> 100 µM (inactive)
same,GI50,MOLT-4,> 100 µM (inactive)
same,GI50,MCF7,> 100 µM (inactive)
same,GI50,K562,> 100 µM (inactive)
same,GI50,NCI-H23,> 100 µM (inactive)
same,GI50,SK-OV-3,> 100 µM (inactive)
same,GI50,HT-29,> 100 µM (inactive)
same,GI50,BT-549,> 100 µM (inactive)
same,GI50,HCT-15,> 100 µM
same,GI50,SNB-19,> 100 µM (inactive)
same,GI50,U-251,> 100 µM (inactive)
same,GI50,A498,> 100 µM (inactive)
same,GI50,EKVX,> 100 µM (inactive)
same,GI50,UACC-257,> 100 µM (inactive)
same,GI50,HOP-92,> 100 µM (inactive)
same,GI50,SF-295,> 100 µM (inactive)
same,GI50,A549,> 100 µM (inactive)
same,GI50,SK-MEL-2,> 100 µM (inactive)
CNC(=O)C(NC(=O)[C@H](CC(C)C)NC(=O)[C@@H](S)CCN1C(=O)N(C)C(C)(C)C1=O)C(C)(C)C (stereo not given in full),GI50,NCI-H522,> 100 µM (inactive)
same,GI50,NCI-H226,> 100 µM (inactive)
same,GI50,SW-620,> 100 µM (inactive)
same,GI50,MDA-MB-435,> 100 µM (inactive)
same,GI50,SK-MEL-5,> 100 µM (inactive)
same,GI50,SK-MEL-28,> 100 µM (inactive)
same,GI50,CAKI-1,> 100 µM (inactive)
same,GI50,OVCAR-5,> 100 µM (inactive)
same,GI50,HCT-116,> 100 µM (inactive)
same,GI50,M14,> 100 µM (inactive)
same,GI50,TK-10,> 100 µM (inactive)
same,GI50,ACHN,> 100 µM (inactive)
same,GI50,MDA-N,> 100 µM (inactive)
same,GI50,IGROV-1,> 100 µM (inactive)
same,GI50,UO-31,> 100 µM (inactive)
same,GI50,SN12C,> 100 µM (inactive)
same,GI50,RXF 393,> 100 µM (inactive)
same,GI50,UACC-62,> 100 µM (inactive)
same,GI50,SR,> 100 µM (inactive)
same,GI50,NCI-H460,> 100 µM (inactive)
same,GI50,Hs-578T,> 100 µM (inactive)
same,GI50,OVCAR-4,> 100 µM (inactive)
same,GI50,KM12,> 100 µM (inactive)
same,GI50,RPMI-8226,> 100 µM (inactive)
same,GI50,PC-3,> 100 µM (inactive)
same,GI50,Malme-3M,> 100 µM (inactive)
same,GI50,DU-145,> 100 µM (inactive)
same,GI50,HCC 2998,> 100 µM (inactive)
same,GI50,NCI/ADR-RES,> 100 µM (inactive)
same,GI50,T47D,> 100 µM (inactive)
same,GI50,HL-60,> 100 µM (inactive)
same,GI50,LOX IMVI,2.91 µM (inactive)
same,GI50,786-0,> 100 µM (inactive)
same,GI50,OVCAR-8,> 100 µM (inactive)
same,GI50,SF-268,> 100 µM (inactive)
same,GI50,HOP-62,> 100 µM (inactive)
same,GI50,MOLT-4,> 100 µM (inactive)
same,GI50,MCF7,> 100 µM (inactive)
same,GI50,K562,79.6 µM (inactive)
same,GI50,NCI-H23,> 100 µM (inactive)
same,GI50,SK-OV-3,> 100 µM (inactive)
same,GI50,HT-29,> 100 µM (inactive)
same,GI50,BT-549,> 100 µM (inactive)
same,GI50,HCT-15,> 100 µM
same,GI50,SNB-19,> 100 µM (inactive)
same,GI50,A498,> 100 µM (inactive)
same,GI50,EKVX,> 100 µM (inactive)
same,GI50,UACC-257,> 100 µM (inactive)
same,GI50,HOP-92,> 100 µM (inactive)
same,GI50,SF-295,> 100 µM (inactive)
same,GI50,A549,> 100 µM (inactive)
same,GI50,SK-MEL-2,> 100 µM (inactive)
